The values that follow come from US12187722B2, “Small molecule inhibitors of TEAD transcription factors” (The General Hospital Corporation, priority 2019, dated 2025).

In general, inhibition refers to the relative decrease from the control value, in per cent. Read a low inhibition as little suppression.

The assay deals with TEAD2 (Homo sapiens (Human), UniProt Q15562). The experiment in a line: In vitro palmitoylation (TEAD2 autopalmitoylation, streptavidin blot). Format: biochemical. Particulars: compound at 10 μM. How it is done:
Recombinant GST-TEAD2 or His6TEAD2 (500 ng) protein was pre-incubated with the compounds at indicated concentrations for 15 min. and then incubated with 1 μM of alkyne palmitoyl-5 CoA (Cayman Chemical) for 30 min or 50 mM MES, pH 6.4, followed by Click reaction with biotin-azide as previously described (Zheng, B. et al., J. Am. Chem. Soc., 2013, 135, 7082-7085). Click reaction was performed with 100 μM biotin-azide, 1 mM tris(2-carboxyethyl) phosphine hydrochloride (TCEP), 100 μM tris[(1-benzyl-1H-1,2,3-triazol-4-yl) methyl] amine (TBTA) and 1 mM CuSO4 for 1 h at RT.
The reactions were terminated by the addition of 12 μL of 6×SDS-sample loading buffer (50 mM Tris-HCl, pH 6.8, 6% SDS, 48% Glycerol, 0.03% Bromophenol Blue, 30 mM EDTA, 9% MeSH). Samples were analysed by SDS-PAGE and Western blot was performed by probing with streptavidin HRP and histidine HRP antibodies independently. Bands intensity obtained from streptavidin blot were quantified using BIORAD, Gel doc system and the percentage of inhibition of Tead2 auto palmitoylation is determined by comparing to the DMSO control treated samples.
These compounds were tested for activity in inhibiting TEAD2 palmitoylation in the assay described above.

TEAD2, sequence (Q15562 whole entry): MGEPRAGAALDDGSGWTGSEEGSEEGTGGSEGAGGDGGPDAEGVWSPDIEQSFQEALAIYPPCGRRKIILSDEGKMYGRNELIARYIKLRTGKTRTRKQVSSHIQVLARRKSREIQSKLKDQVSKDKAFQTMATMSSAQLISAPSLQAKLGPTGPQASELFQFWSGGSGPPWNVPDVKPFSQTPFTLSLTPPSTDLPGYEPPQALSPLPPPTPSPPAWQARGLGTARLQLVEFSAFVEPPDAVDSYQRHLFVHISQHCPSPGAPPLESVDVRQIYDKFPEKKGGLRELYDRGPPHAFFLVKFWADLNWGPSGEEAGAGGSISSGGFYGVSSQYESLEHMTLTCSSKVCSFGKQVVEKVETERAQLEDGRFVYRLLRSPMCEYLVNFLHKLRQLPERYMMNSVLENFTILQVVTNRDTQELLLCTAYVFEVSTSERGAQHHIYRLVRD

Where the note is “Table 2”, `CCCCN(CCCC)C(=O)c1ccc(Nc2ccccc2C(=O)O)cc1` [Compound 159] gave an inhibition at 10 µM of 41%.
On the same count and under the same terms, for `O=C(O)c1ccccc1Nc1ccc(Nc2ccc(C34CC5CC(CC(C5)C3)C4)cc2)nc1` [Compound 34] the value was 14%.
On the same count and under the same terms, to `CC1(C)OC(C(=O)O)C(C(=O)Nc2cc(Nc3ccc(C45CC6CC(CC(C6)C4)C5)cc3Cl)cc(C(F)(F)F)c2)O1` (centres unmarked) [Compound 120] belongs 79%; to `COC(=O)c1cccnc1Nc1ccc(Nc2ccc(C34CC5CC(CC(C5)C3)C4)cc2Cl)cc1` [Compound 17], 7%; to `O=C(O)/C=C/c1ccccc1Nc1ccc(Nc2ccc(C34CC5CC(CC(C5)C3)C4)cc2)cc1` [Compound 245], 87%.
Still for that read-out and setting: for `CC12CC3CC(C)(C1)CC(c1ccc(Nc4ccc(Nc5cccc(C(=O)O)n5)cc4)cc1)(C3)C2` [Compound 201] the value was 43%; for `CN(c1cccc(C(=O)Nc2ccc(C34CC5CC(CC(C5)C3)C4)cc2)c1)c1ccccc1C(=O)O` [Compound 230], 0%.
As to `O=C(Nc1ccc(C23CC4CC(CC(C4)C2)C3)cc1)c1ccc(Nc2cccc(C(=O)O)n2)cc1` [Compound 148], where the note is “Table 2”, the “% of inhibition of TEAD2 palmitoylation at 10 μM” value is 69% and testing at 10 µM gave an inhibition of 56%.
With `COc1ccc(Nc2ccc(N(C)c3ccc(C4CCC(C)CC4)cc3)cc2)c(C(=O)O)c1` (centres unmarked) [CP-574], the inhibition at 10 µM (Table 3) is 91%.
Same read-out and setting: for `Cc1cc(N(C)c2ccc(C3CCCCC3)cc2)ccc1Nc1ccc(N2CC3(COC3)C2)cc1C(=O)O` [CP-627] the value was 51%.
`O=C(O)c1ccccc1Nc1cc(Nc2ccc(C34CC5CC(CC(C5)C3)C4)cc2)cc(C(F)(F)F)c1` [Compound 26] came in with an inhibition at 10 µM (Table 2) of 90%.
The same measure, in the same setting: to `O=C(O)C1=C(C(=O)Nc2ccc(C34CC5CC(CC(C5)C3)C4)cc2)CCC1` [compound 289] belongs 88%; to `CN(c1ccc(N(C)c2ccc(C34CC5CC(CC(C5)C3)C4)cc2)c(C(F)(F)F)c1)c1ccccc1C(=O)O` [Compound 158], 100%; to `Clc1cc(C23CC4CC(CC(C4)C2)C3)ccc1Nc1ccc(Cn2cncn2)cc1` [Compound 9], 76%.
On the same count and under the same terms, to `O=S1(=O)N=C(Nc2ccc(Nc3ccc(C45CC6CC(CC(C6)C4)C5)cc3Cl)cc2)c2ccccc21` [Compound 18] belongs 35%; to `O=C(O)c1cccnc1Nc1cn(Cc2ccc(C34CC5CC(CC(C5)C3)C4)cc2Cl)cn1` [Compound 134], 0%.
Same read-out and setting: to `COC(=O)c1ccccc1Nc1ccc(Nc2ccc(C34CC5CC(CC(C5)C3)C4)cc2)cc1` [Compound 2] belongs 0%.
The compound `COc1ccc(Nc2ccc(N(C)c3ccc(C4CC5CCC4C5)cc3)cc2C)c(C(=O)O)c1` (centres unmarked) [CP-577] displayed an inhibition at 10 µM (Table 3) of 79%.
Compound `O=C(O)c1cccc(NC(=O)c2cccc(Nc3ccc(C45CC6CC(CC(C6)C4)C5)cc3)c2)c1` [Compound 240] displayed an inhibition at 10 µM (Table 2) of 62%.
`O=C(O)c1cccc(Nc2cc(Nc3ccc(C4CCCCC4)cc3)cc(C(F)(F)F)c2)n1` [CP-641] came in with an inhibition at 10 µM (Table 3) of 69%.
Regarding `CCN(c1ccc(N(CC)c2ccccc2C(=O)O)cc1)c1ccc(C23CC4CC(CC(C4)C2)C3)cc1` [Compound 163], 10 µM produced 85% inhibition (Table 2).
Under “Table 3”, `Cc1cc(N(C)c2ccc(C3CCCCC3)cc2)ccc1Nc1ccc(OC2CCCCC2)cc1C(=O)O` [CP-634] came in with an inhibition at 10 µM of 32%.
Still for that read-out and setting: to `COc1ccc(Nc2ccc(N(C)c3ccc(C4CCCCC4)cn3)cc2)c(C(=O)O)c1` [CP-581] belongs 40%.
Regarding `NC(=O)c1ccccc1Nc1ccc(Nc2ccc(C34CC5CC(CC(C5)C3)C4)cc2Cl)cc1` [compound 272], the inhibition at 10 µM (Table 2) was 77%.
Same read-out and setting: for `O=C(O)Cn1ncc2ccc(Nc3ccc(C45CC6CC(CC(C6)C4)C5)cc3Cl)cc21` [Compound 118] the value was 78%.
As to `CCCCOc1ccc(Nc2ccc(N(C)c3ccc(C4CCCCC4)cc3)cc2C)c(C(=O)O)c1` [CP-628], where the note is “Table 3”, the inhibition at 10 µM is 40%.
With `O=C(O)c1ccccc1Nc1ccc(N(c2ccc(C34CC5CC(CC(C5)C3)C4)cc2)C(F)(F)F)cc1` [Compound 186], the inhibition at 10 µM (Table 2) stood at 76%.
Where the note is “Table 3”, `COc1ccc(Nc2ccc(N(C)c3ccc(OC(F)(F)F)cc3)nc2)c(C(=O)O)c1` [CP-596] came in with an inhibition at 10 µM of 48%.
`COc1ccc(Nc2ccc(N(C)c3ccc(S(F)(F)(F)(F)F)cc3)cc2F)c(C(=O)O)c1` [CP-573] returned an inhibition at 10 µM (Table 3) of 74%.
On to `O=C(O)c1ccc(Nc2ccc(Nc3ccc(C45CC6CC(CC(C6)C4)C5)cc3)cc2)cc1` [Compound 81], for which the inhibition at 10 µM (Table 2) is 78%.
The same measure, in the same setting: to `CN(c1ccc(N2CCN(c3ccc(C45CC6CC(CC(C6)C4)C5)cc3)CC2)cc1)c1ccccc1C(=O)O` [Compound 218] belongs 0%; to `Cn1c(-c2ccc(Nc3ccc(C45CC6CC(CC(C6)C4)C5)cc3)cc2)nc2cccc(C(=O)O)c21` [Compound 173], 51%.
The same measure, in the same setting: to `O=C(O)c1cccnc1Nc1ccc(C23CC4CC(CC(C4)C2)C3)cc1Br` [Compound 92] belongs 90%; to `O=C(O)c1cccc(Nc2ccc(Nc3ccc(C45CC6CC(CC(C6)C4)C5)cc3Cl)cc2)c1` [Compound 84], 98%.
Where the note is “Table 3”, `COc1ccc(Nc2ccc(N(C)c3ccc(Cl)cc3)cc2)c(C(=O)O)c1` [CP-535] gave an inhibition at 10 µM of 54%.
As for `Cc1cc(C23CC4CC(CC(C4)C2)C3)cc(C)c1Nc1ccc(Nc2ccccc2C(=O)O)cc1` [Compound 79], at 10 µM the inhibition (Table 2) was 45%.
Turning to `COc1ccc(Nc2ccc(N(C)c3ccc(C(F)(F)F)cc3)cc2)c(C(N)=O)c1` [compound 429], at 10 µM the inhibition (Table 2) was 47%.
Still for that read-out and setting: for `O=C(O)c1cccc2nc(-c3cccc(C45CC6CC(CC(C6)C4)C5)c3)[nH]c12` [Compound 97] the value was 60%.
For `Cc1cc(N(C)c2ccc(C3CCCCC3)cc2)ccc1Nc1ccc(CN(C)C)cc1C(=O)O` [CP-640], the inhibition at 10 µM (Table 3) turned out to be 20%.
Compound `O=C1CCc2ccccc2N1c1ccc(Nc2ccc(C34CC5CC(CC(C5)C3)C4)cc2)cc1` [Compound 15] yielded an inhibition at 10 µM (Table 2) of 12%.
In turn, `COCCOc1ccc(Nc2ccc(N(C)c3ccc(C4CCCCC4)cc3)cc2)c(C(=O)O)c1` [CP-536] gave an inhibition at 10 µM (Table 3) of 84%.
`O=C(O)c1nccnc1Nc1ccc(Nc2ccc(C34CC5CC(CC(C5)C3)C4)cc2Cl)cc1` [Compound 86] showed an inhibition at 10 µM (Table 2) of 54%.
Same read-out and setting: for `O=C(Nc1ccc(Nc2cccc(C(=O)O)n2)cc1)Nc1ccc(C23CC4CC(CC(C4)C2)C3)cc1` [Compound 182] the value was 54%; for `CCCCN(CCCC)C(=O)c1ccc(Nc2ccc(Nc3ccccc3C(=O)O)cc2)cc1` [Compound 175], 70%.
The same measure, in the same setting: to `Cc1ccccc1-c1ccc(Nc2ccc(Nc3ccccc3C(=O)O)cc2)c(Cl)c1` [Compound 51] belongs 79%.
As to `COc1ccc(Nc2ccc(N(C)c3ccc(C4=CCC(F)(F)CC4)cc3)cc2)c(C(=O)O)c1` [CP-557], testing at 10 µM (Table 3) gave an inhibition of 34%.
Same read-out and setting: to `CN(c1ccc(Nc2cccc(C(=O)O)n2)cn1)c1ccc(C2CCCCC2)cc1Cl` [CP-659] belongs 46%.
Consider `O=C(Nc1ccc(C23CC4CC(CC(C4)C2)C3)cc1Br)c1ccc(Nc2ccccc2C(=O)O)cc1` [Compound 36], for which the inhibition at 10 µM (Table 2) is 100%.
On the same count and under the same terms, for `O=C(O)[C@@H]1CCCN1C(=O)c1ccc(Nc2ccc(C34CC5CC(CC(C5)C3)C4)cc2Cl)cc1` [Compound 48] the value was 87%.
Take `O=C(O)C1CCCC1Nc1ccc(Nc2ccc(C34CC5CC(CC(C5)C3)C4)cc2Cl)cc1` (centres unmarked) [Compound 40]: the “% of inhibition of TEAD2 palmitoylation at 10 μM” value (Table 2) came to 43%.
Take `N#Cc1ccccc1Nc1ccc(Nc2ccc(C34CC5CC(CC(C5)C3)C4)cc2Cl)cc1` [Compound 7]: where the note is “Table 2”, 10 µM produced 30% inhibition.
Same read-out and setting: to `O=C(O)c1cncc(Nc2ccc(Nc3ccc(C45CC6CC(CC(C6)C4)C5)cc3Cl)cc2)n1` [Compound 115] belongs 67%.
As to `N#Cc1cc(Nc2ccc(C34CC5CC(CC(C5)C3)C4)cc2)ccc1Nc1ccccc1C(=O)O`, at 10 µM the inhibition was 80%.
In turn, `COc1ccc(Nc2ccc(N(C)c3cc(C4CCCCC4)nn3C)cc2)c(C(=O)O)c1` [CP-618] registered an inhibition at 10 µM (Table 3) of 31%.
For `O=C(NC12CC3CC(CC(C3)C1)C2)c1ccc(Nc2ccc(Nc3ncccc3C(=O)O)cc2)cc1` [Compound 257], at 10 µM the inhibition (Table 2) was 55%.
For the compound `COc1ccc(Nc2ccc(Oc3ccc(OC(F)(F)F)cc3Cl)nc2)c(C(=O)O)c1` [CP-600], 10 µM produced 37% inhibition (Table 3).
Regarding `O=C(O)c1ccccc1Nc1cnc(Oc2ccc(C3CCCCC3)cc2Cl)cn1` [compound 441], at 10 µM the inhibition (Table 2) was 79%.
The same measure, in the same setting: for `COC(=O)c1ccccc1Nc1cccc(Nc2ccc(C34CC5CC(CC(C5)C3)C4)cc2)c1` [Compound 1] the value was 10%.
Same read-out and setting: for `Cn1c(-c2cccc(Nc3ccc(C45CC6CC(CC(C6)C4)C5)cc3)c2)nc2cccc(C(=O)O)c21` [Compound 210] the value was 100%; for `CN(c1ccc(N2CC(Oc3ccc(C45CC6CC(CC(C6)C4)C5)cc3)C2)cc1)c1ccccc1C(=O)O` [Compound 200], 32%.
Where the note is “Table 3”, `COc1ccc(Nc2ccc(N(C)c3nc(C4CCCCC4)cs3)cc2)c(C(=O)O)c1` [CP-597] came in with an inhibition at 10 µM of 63%.
